# Patent US20080200454A1, “CARBON-LINKED TETRAHYDRO-PYRAZOLO-PYRIDINE MODULATORS OF CATHEPSIN S” (priority 2007, published 2008)
# Like-named read-outs stand apart in the source and are kept apart here.
# Target: Recombinant human cathepsin S (CatS) (Homo sapiens, UniProt P25774)
# Assay: Recombinant human cathepsin S (CatS) inhibition assay, fluorogenic substrate Z-Valine-Valine-Arginine-AMC;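 also: Baculovirus-expressed CatS in pH 5.0 sodium acetate buffer with DTT and NaCl, fluorescence read each minute over 20 min, inhibition derived from rate slope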
# Chain of Recombinant human cathepsin S (CatS) (P25774 115-331): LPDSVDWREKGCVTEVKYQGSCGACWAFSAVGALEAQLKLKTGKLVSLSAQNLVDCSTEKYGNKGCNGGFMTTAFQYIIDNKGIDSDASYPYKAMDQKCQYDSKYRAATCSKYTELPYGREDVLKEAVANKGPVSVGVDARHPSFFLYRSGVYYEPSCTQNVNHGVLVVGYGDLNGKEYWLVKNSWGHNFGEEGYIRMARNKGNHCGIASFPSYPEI
IC50 [µM],Structure (SMILES),IC50 (CatS IC50) [µM]
0.04,"NC(=O)N1CCc2c(c(-c3ccc(Cl)c(C#Cc4ccc(Cl)c(CN5CCOCC5)c4)c3)nn2CCCN2CCCCC2)C1 [Example 602, 3-(4-Chloro-3-{[4-chloro-3-(morpholin-4-ylmethyl)phenyl]ethynyl}phenyl)-1-(3-piperidin-1-ylpropyl)-1,4,6,7-tetrahydro-5H-pyrazolo[4,3-c]pyridine-5-carboxamide]",
,"CS(=O)(=O)N1CCc2c(c(-c3ccc(Cl)c(C#Cc4ccc(Cl)c(CNC5CC5)c4)c3)nn2CCCN2CCCCC2)C1 [Example 603, N-[2-Chloro-5-({2-chloro-5-[5-(methylsulfonyl)-1-(3-piperidin-1-ylpropyl)-4,5,6,7-tetrahydro-1H-pyrazolo[4,3-c]pyridin-3-yl]phenyl}ethynyl)benzyl]cyclopropanamine]",0.05
,"CS(=O)(=O)N1CCc2c(c(-c3ccc(Cl)c(C#Cc4ccc(Cl)c(CN5CCOCC5)c4)c3)nn2CCCN2CCCCC2)C1 [Example 604, 3-(4-Chloro-3-{[4-chloro-3-(morpholin-4-ylmethyl)phenyl]ethynyl}phenyl)-5-(methylsulfonyl)-1-(3-piperidin-1-ylpropyl)-4,5,6,7-tetrahydro-1H-pyrazolo[4,3-c]pyridine]",0.08
,"NC(=O)N1CCc2c(c(-c3ccc(Cl)c(C#Cc4ccc(Cl)c(CNC5CC5)c4)c3)nn2CCCN2CCSCC2)C1 [Example 605, 3-[4-Chloro-3-({4-chloro-3-[(cyclopropylamino)methyl]phenyl}ethynyl)phenyl]-1-(3-thiomorpholin-4-ylpropyl)-1,4,6,7-tetrahydro-5H-pyrazolo[4,3-c]pyridine-5-carboxamide]",0.04
,"NC(=O)N1CCc2c(c(-c3ccc(Cl)c(C#Cc4ccc(Cl)c(CN5CCOCC5)c4)c3)nn2CCCN2CCSCC2)C1 [Example 606, 3-(4-Chloro-3-{[4-chloro-3-(morpholin-4-ylmethyl)phenyl]ethynyl}phenyl)-1-(3-thiomorpholin-4-ylpropyl)-1,4,6,7-tetrahydro-5H-pyrazolo[4,3-c]pyridine-5-carboxamide]",0.04
,"NC(=O)N1CCc2c(c(-c3ccc(Cl)c(C#Cc4ccc(C(=O)NCCN5CCOCC5)cc4)c3)nn2CCCN2CCSCC2)C1 [Example 607, 3-[4-Chloro-3-({4-[(2-morpholin-4-ylethyl)carbamoyl]phenyl}ethynyl)phenyl]-1-(3-thiomorpholin-4-ylpropyl)-1,4,6,7-tetrahydro-5H-pyrazolo[4,3-c]pyridine-5-carboxamide]",0.05
0.07,"CS(=O)(=O)N1CCc2c(c(-c3ccc(Cl)c(C#Cc4ccc(C(=O)NCCN5CCOCC5)cc4)c3)nn2CCCN2CCCCC2)C1 [Example 608, 4-({2-Chloro-5-[5-(methylsulfonyl)-1-(3-piperidin-1-ylpropyl)-4,5,6,7-tetrahydro-1H-pyrazolo[4,3-c]pyridin-3-yl]phenyl}ethynyl)-N-(2-morpholin-4-ylethyl)benzamide]",
0.07,"NC(=O)N1CCc2c(c(-c3ccc(Cl)c(C#Cc4ccc(C(=O)NC[C@@H]5CCCN5)cc4)c3)nn2CCCN2CCSCC2)C1 [Example 609, 3-{4-Chloro-3-[(4-{[(2S)-pyrrolidin-2-ylmethyl]carbamoyl}phenyl)ethynyl]phenyl}-1-(3-thiomorpholin-4-ylpropyl)-1,4,6,7-tetrahydro-5H-pyrazolo[4,3-c]pyridine-5-carboxamide]",
,"C[C@H]1COCCN1CCCn1nc(-c2ccc(Cl)c(C#Cc3ccc(C(=O)NC[C@@H]4CCCN4)cc3)c2)c2c1CCN(C(=O)C(N)=O)C2 [Example 610, 4-{[5-(5-[Amino(oxo)acetyl]-1-{3-[(3S)-3-methylmorpholin-4-yl]propyl}-4,5,6,7-tetrahydro-1H-pyrazolo[4,3-c]pyridin-3-yl)-2-chlorophenyl]ethynyl}-N-[(2S)-pyrrolidin-2-ylmethyl]benzamide]",0.03
,"CS(=O)(=O)N1CCc2c(c(-c3ccc(Cl)c(C#Cc4ccc(C(=O)NC[C@@H]5CCCN5)cc4)c3)nn2CCCN2CCCCC2)C1 [Example 611, 4-({2-Chloro-5-[5-(methylsulfonyl)-1-(3-piperidin-1-ylpropyl)-4,5,6,7-tetrahydro-1H-pyrazolo[4,3-c]pyridin-3-yl]phenyl}ethynyl)-N-[(2S)-pyrrolidin-2-ylmethyl]benzamide]",0.1
,"CNCCCNC(=O)c1ccc(C#Cc2cc(-c3nn(CCCN4CCSCC4)c4c3CN(C(N)=O)CC4)ccc2Cl)cc1 [Example 612, 3-{4-Chloro-3-[(4-{[3-(methylamino)propyl]carbamoyl}phenyl)ethynyl]phenyl}-1-(3-thiomorpholin-4-ylpropyl)-1,4,6,7-tetrahydro-5H-pyrazolo[4,3-c]pyridine-5-carboxamide]",0.08
0.04,"CNCCCNC(=O)c1ccc(C#Cc2cc(-c3nn(CCCN4CCOC[C@@H]4C)c4c3CN(C(=O)C(N)=O)CC4)ccc2Cl)cc1 [Example 613, 4-{[5-(5-[Amino(oxo)acetyl]-1-{3-[(3S)-3-methylmorpholin-4-yl]propyl}-4,5,6,7-tetrahydro-1H-pyrazolo[4,3-c]pyridin-3-yl)-2-chlorophenyl]ethynyl}-N-[3-(methylamino)propyl]benzamide]",
,"CNCCCNC(=O)c1ccc(C#Cc2cc(-c3nn(CCCN4CCCCC4)c4c3CN(S(C)(=O)=O)CC4)ccc2Cl)cc1 [Example 614, 4-({2-Chloro-5-[5-(methylsulfonyl)-1-(3-piperidin-1-ylpropyl)-4,5,6,7-tetrahydro-1H-pyrazolo[4,3-c]pyridin-3-yl]phenyl}ethynyl)-N-[3-(methylamino)propyl]benzamide]",0.06
,"CN(C)Cc1cc(C#Cc2cc(-c3nn(CCCN4CCSCC4)c4c3CN(C(N)=O)CC4)ccc2Cl)ccc1Cl [Example 615, 3-[4-Chloro-3-({4-chloro-3-[(dimethylamino)methyl]phenyl}ethynyl)phenyl]-1-(3-thiomorpholin-4-ylpropyl)-1,4,6,7-tetrahydro-5H-pyrazolo[4,3-c]pyridine-5-carboxamide]",0.03
,"C[C@H]1COCCN1CCCn1nc(-c2ccc(Cl)c(C#Cc3ccc(Cl)c(CN(C)C)c3)c2)c2c1CCN(C(=O)C(N)=O)C2 [Example 616, 2-(3-[4-Chloro-3-({4-chloro-3-[(dimethylamino)methyl]phenyl}ethynyl)phenyl]-1-{3-[(3S)-3-methylmorpholin-4-yl]propyl}-1,4,6,7-tetrahydro-5H-pyrazolo[4,3-c]pyridin-5-yl)-2-oxoacetamide]",0.012
,"CN(C)Cc1cc(C#Cc2cc(-c3nn(CCCN4CCCCC4)c4c3CN(S(C)(=O)=O)CC4)ccc2Cl)ccc1Cl [Example 617, 1-[2-Chloro-5-({2-chloro-5-[5-(methylsulfonyl)-1-(3-piperidin-1-ylpropyl)-4,5,6,7-tetrahydro-1H-pyrazolo[4,3-c]pyridin-3-yl]phenyl}ethynyl)phenyl]-N,N-dimethylmethanamine]",0.04
,"C[C@H]1COCCN1CCCn1nc(-c2ccc(Cl)c(C#Cc3ccc(CO)cc3)c2)c2c1CCN(C(=O)C(N)=O)C2 [Example 618, 2-[3-(4-Chloro-3-{[4-(hydroxymethyl)phenyl]ethynyl}phenyl)-1-{3-[(3S)-3-methylmorpholin-4-yl]propyl}-1,4,6,7-tetrahydro-5H-pyrazolo[4,3-c]pyridin-5-yl]-2-oxoacetamide]",0.02
